Data: US20100317688A1, “2-HETEROAROYLIMIDAZOL[1,2-a]PYRIDINE DERIVATIVES, PREPARATION AND THERAPEUTIC USE THEREOF” (SANOFI-AVENTIS, priority 2008, published 2010)

Biological target: T1, murine Nurr1 receptor (Mus musculus, UniProt Q06219)
T1 construct: a cell line (N2A) endogenously expressing the murine Nurr1 receptor; host or cells: Neuro-2A (N2A) mouse neuroblastoma cells stably transfected with 8NBRE-luciferase
Test: In vitro activity on N2A cells (8NBRE-luciferase reporter)
Assay type: cell-based
Conditions: N2A cell line endogenously expressing Nurr1, stably transfected with NBRE-luciferase; 24 hours incubation
Description: Evaluation of the In Vitro Activity on N2A Cells
The activity of the compounds according to the invention was evaluated on a cell line (N2A) endogenously expressing the murine Nurr1 receptor and stably transfected with the NOT binding response element (NBRE) coupled to the luciferase reporter gene. The EC50 values are between 0.01 and 1000 nM. The tests were performed according to the procedure described hereinbelow.
The cell line Neuro-2A is obtained from a standard commercial source (ATCC). The clone Neuro-2A was obtained from a spontaneous tumour originating from a strain of albino mice A by R. J Klebe et al. This line Neuro-2A is then stably transfected with 8NBRE-luciferase. The N2A-8NBRE cells are cultured to the point of confluence in 75 cm^2 culture flasks containing DMEM supplemented with 10% foetal calf serum, 4.5 g/L of glucose and 0.4 mg/ml of geneticin. After culturing for one week, the cells are recovered with 0.25% trypsin for 30 seconds and then resuspended in DMEM without phenol red, containing 4.5 g/L of glucose and 10% Hyclone defatted serum, and placed in white, transparent-based 96-well plates. The cells are deposited at a rate of 60 000 per well in 75 μL for 24 hours before adding the products. […] The plates are then measured in a microplate luminescence counter, after having been sealed with an adhesive film. […]

T1 sequence (Q06219 whole entry): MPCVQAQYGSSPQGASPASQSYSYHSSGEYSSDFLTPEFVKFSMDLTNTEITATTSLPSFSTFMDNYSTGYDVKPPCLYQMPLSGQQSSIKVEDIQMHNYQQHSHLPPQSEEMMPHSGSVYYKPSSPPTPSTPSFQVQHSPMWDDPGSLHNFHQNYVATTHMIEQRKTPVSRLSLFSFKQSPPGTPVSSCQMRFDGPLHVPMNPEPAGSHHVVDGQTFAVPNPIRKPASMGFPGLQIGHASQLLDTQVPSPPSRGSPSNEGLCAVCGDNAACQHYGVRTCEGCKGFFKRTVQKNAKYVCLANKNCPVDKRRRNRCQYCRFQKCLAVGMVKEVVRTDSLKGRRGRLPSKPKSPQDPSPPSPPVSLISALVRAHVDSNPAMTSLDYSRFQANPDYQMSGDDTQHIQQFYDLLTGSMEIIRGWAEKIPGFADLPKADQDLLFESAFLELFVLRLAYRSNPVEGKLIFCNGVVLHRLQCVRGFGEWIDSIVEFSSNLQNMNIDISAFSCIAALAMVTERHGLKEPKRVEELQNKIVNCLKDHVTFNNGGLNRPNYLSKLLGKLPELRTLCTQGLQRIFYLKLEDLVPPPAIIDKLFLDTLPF

- EC50: 4.7 nM
SMILES: O=C(c1cn2cc(Cl)ccc2n1)c1cccs1 [Example 4, (6-Chloroimidazo[1,2-a]pyridin-2-yl)(thien-2-yl)methanone]
